The target in one assay is S. aurues DHFR (Staphylococcus aureus, UniProt P0A017). Put plainly: biochemical. The settings on record: S. aureus DHFR. Type of assay: biochemical.
Another assay concerns S. aureus. Nature of the assay: Antibacterial activity (MIC), whole-cell bacterial growth inhibition. In kind it is cell-based, Staphylococcus aureus. The settings on record: for MIC: Staphylococcus aureus. An excerpt:
Antibacterial activity as measured by the minimal inhibitory concentrations (MIC) and minimal bactericidal concentrations of compounds are well known (see., e.g., National Committee for Clinical Laboratory Standards 2000 Performance standards for antimicrobial disk susceptibility tests: approved standard, 7th ed. M2-A7, vol. 20, no. 1, Committee for Clinical Laboratory Standards, Wayne, Pa.) In vitro testing for antibacterial activity may be accomplished through use of a whole-cell bacterial growth inhibition assay. For example, an […] assay identifies a substance that inhibits bacterial growth. Microtiter plates are prepared with serial dilutions of the test compound, adding to the preparation a given amount of growth substrate, and providing a preparation of bacteria. Inhibition of bacterial growth is determined, for example, by observing changes in optical densities of the bacterial cultures. Inhibition of bacterial growth is determined, for example, by comparing (in the presence and absence of a test compound) the rate of growth or the absolute growth of bacterial cells. Inhibition includes a reduction of one of the above measurements by at least 20%.

The next assay concerns the target human DHFR (Homo sapiens (Human), UniProt P00374). Nature of the assay: DHFR enzymatic inhibition (Ki), human DHFR. Type of assay: biochemical.
Setting [1] is: S. aureus in 20% serum, read-out: MIC in μg/ml S. aureus in 20% serum.
[2] abbreviates: S. aureus, read-out: MIC in μg/ml S. aureus.

In brackets after ≈: the same amount, converted by molar mass. Like-named read-outs stand apart in the source and are kept apart here.

The term Ki denotes a dissociation constant, usually derived from enzyme kinetics or from competition with a known ligand.

Sequence of human DHFR (P00374 whole entry): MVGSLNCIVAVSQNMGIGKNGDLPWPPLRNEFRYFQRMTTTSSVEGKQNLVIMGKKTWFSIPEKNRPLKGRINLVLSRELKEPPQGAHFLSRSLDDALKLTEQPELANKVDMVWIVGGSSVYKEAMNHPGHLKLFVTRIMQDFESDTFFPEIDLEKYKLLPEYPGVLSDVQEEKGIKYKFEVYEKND

As for `COc1cc(-c2cc3nc(N)nc(N)c3cc2C)c(Cl)cn1` [Compound 28, 7-(5-chloro-2-methoxypyridin-4-yl)-6-methylquin-azoline-2,4-diamine], the Ki at S. aurues DHFR is 0.72 nM; at human DHFR, 56 nM. In addition, the MIC in the assay with S. aureus (setting [1]) was 1 µg/mL (≈ 3.17 µM); in the assay with S. aureus (setting [2]), 0.5 µg/mL (≈ 1.58 µM).

With `COc1ncc(-c2cc3nc(N)nc(N)c3cc2C)c(OC)n1` [Compound 29, 7-(2,4-dimethoxypyrimidin-5-yl)-6-methylquinazo-line-2,4-diamine], the figures for the Ki on S. aurues DHFR and at human DHFR were 0.4 nM and 54.7 nM, respectively. The MIC in the assay on S. aureus (setting [1]) and in the assay with S. aureus (setting [2]) was 0.5 µg/mL (≈ 1.6 µM) in each case.

Take `CCOc1ccc(-c2cccc(NS(C)(=O)=O)c2)cc1-c1ccc2c(N)nc(N)nc2c1` [Compound 30, N-(3′-(2,4-diaminoquinoazlin-7-yl)-4′-ethoxybiphenyl-3-yl)methanesulfonamide]: the Ki on S. aurues DHFR came out at 0.02 nM; on human DHFR, 5.8 nM. The figures for the MIC in the assay with S. aureus (setting [1]) and in the assay on S. aureus (setting [2]) were 2 µg/mL (≈ 4.45 µM) and at most 0.5 µg/mL, respectively.

As for `CCOc1ccc2ccccc2c1-c1cc2nc(N)nc(N)c2cc1C` [Compound 31, 7-(2-ethoxynaphthalen-1-yl)-6-methylquinazoline-2,4-diamine], the inhibition constant Ki on S. aurues DHFR was found to be 0.026 nM; at human DHFR, 4.5 nM. In addition, the MIC is 0.5 µg/mL (≈ 1.45 µM) in the assay with S. aureus (setting [1]) and at most 0.125 µg/mL in the assay on S. aureus (setting [2]).

As to `COC(=O)c1ccc2c(c1)nc(-c1nccs1)n2-c1ccc2c(N)nc(N)nc2c1` [Compound 32, methyl 1-(2,4-diaminoquinazolin-7-yl)-2-(thiazol-2-yl)-1H-benzo[d]imidazole-5-carboxylate], the inhibition constant (Ki) is 0.021 nM at S. aurues DHFR and 53.1 nM at human DHFR. Also, the MIC with S. aureus (setting [1]) came to 2 µg/mL (≈ 4.79 µM); in the assay on S. aureus (setting [2]) it was 0.25 µg/mL (≈ 0.599 µM).

On to `COc1cc(-c2cc3nc(N)nc(N)c3cc2C)cc(OC)c1OC` [Compound 33, 6-methyl-7-(3,4,5-trimethoxyphenyl) quinazoline-2,4-diamine], for which the inhibition constant (Ki) on S. aurues DHFR was 0.91 nM; on human DHFR it was 47.1 nM. Also, the values for the MIC in the assay on S. aureus (setting [1]) and in the assay with S. aureus (setting [2]) were 1 µg/mL (≈ 2.94 µM) and at most 0.5 µg/mL, respectively.

For `Cc1cc2nc(-c3nccs3)n(-c3cc4nc(N)nc(N)c4cc3Cl)c2cc1C` [Compound 34, 6-chloro-7-(5,6-dimethyl-2-(thiazol-2-yl)-1H-benzo[d]imidazol-1-yl)quinazoline-2,4-diamine], the inhibition constant (Ki) on S. aurues DHFR was determined as 0.016 nM; at human DHFR it was 8.8 nM. For the same molecule, the “MIC in μg/ml S. aureus” value in the assay with S. aureus (S. aureus) is given as “≦0.125 μg/ml”. Also, the “MIC in μg/ml S. aureus in 20% serum” value in the assay with S. aureus (S. aureus in 20% serum) was 2 µg/mL (≈ 4.74 µM).

Turning to `COc1cc2nc(-c3nccs3)n(-c3ccc4c(N)nc(N)nc4c3)c2cc1OC` [Compound 35], the Ki came to 0.16 nM at S. aurues DHFR and 854 nM on human DHFR. Besides, the MIC in the assay with S. aureus (setting [1]) and with S. aureus (setting [2]) was 0.25 µg/mL (≈ 0.596 µM) throughout.

For the molecule `Cc1ccc2c(c1)nc(-c1cccs1)n2-c1ccc2c(N)nc(N)nc2c1` [Compound 36], the results for the Ki on S. aurues DHFR and on human DHFR were 0.005 nM and 314 nM, respectively. Also, the MIC with S. aureus (setting [1]) and with S. aureus (setting [2]) was 1 µg/mL (≈ 2.68 µM) in each case.

With `COc1ccc2nc(-c3ccco3)n(-c3ccc4c(N)nc(N)nc4c3)c2n1` [Compound 37], the inhibitory constant (Ki) was 0.039 nM on S. aurues DHFR and 797 nM at human DHFR. In addition, the MIC with S. aureus (setting [1]) was determined as 0.5 µg/mL (≈ 1.34 µM); in the assay with S. aureus (setting [2]), 0.25 µg/mL (≈ 0.67 µM).

`COc1cnc(Cl)cc1-c1cc2nc(N)nc(N)c2cc1C` [Compound 38, 7-(2-chloro-5-methyloxypyridin-4-yl)-6-methylquinazoline-2,4-diamine]: the results for the Ki on S. aurues DHFR and on human DHFR were 1.4 nM and 52.4 nM, respectively. In addition, the MIC in the assay on S. aureus (setting [1]) and with S. aureus (setting [2]) was 1 µg/mL (≈ 3.17 µM) each time.

With `CCOc1ccc(C(=O)N(CC)CC)cc1-c1cc2nc(N)nc(N)c2cc1C` [Compound 40, 3-(2,4-diamino-6-methylquinazolin-7-yl)-4-ethoxy-N,N-diethylbenzamide], the values for the Ki on S. aurues DHFR and at human DHFR were 0.025 nM and 34 nM, respectively. In addition, the MIC in the assay on S. aureus (setting [1]) and in the assay on S. aureus (setting [2]) was 0.25 µg/mL (≈ 0.635 µM) each time.

Turning to `Cc1cc2c(N)nc(N)nc2cc1-c1c[nH]c2ccccc12` [Compound 41, 7-(1H-indol-3-yl)-6-methylquinazoline-2,4-diamine], the Ki on S. aurues DHFR came out at 0.11 nM; on human DHFR, 50.5 nM. Further, the MIC was 0.5 µg/mL (≈ 1.73 µM) with S. aureus (setting [1]) and 0.25 µg/mL (≈ 0.864 µM) in the assay with S. aureus (setting [2]).

Values taken from US8835445B2, “Dihydrofolate reductase inhibitors” (Trius Therapeutics, Inc., priority 2010, dated 2014).
